Assay results from a melting point compilation (Tetko et al.; mined from patent text by program, amines drawn as free bases though some values may be those of a salt).

melting point | SMILES
227 to 228 °C | CC(C)(C(N)=O)n1cc(-c2ccc(Oc3ccccc3)cc2)c2c(N)ncnc21
248 to 250 °C | Cc1cccc(-c2cnc3c(N)ncnc3n2)c1
173 to 174 °C | COc1cccc(CNC(=O)c2nc3cccc(OCCO)c3c(=O)[nH]2)c1
165 to 167 °C | CC(C)(C)OC(=O)N1CCN(c2ccc(Nc3nc(N)c(C(=O)c4c(Cl)cccc4Cl)s3)cc2)CC1
< 50 °C | CCCCc1nn2ccccc2c1Cc1ccc(Br)cc1
262 °C | O=C(Nc1cccc(S(=O)(=O)NC2CC2)c1)c1cnn2c(C(F)F)cc(-c3ccc(Cl)cc3)nc12
159 to 161 °C | Cc1cc(-c2ccccc2C)ccc1NC(=O)c1ccc2n1Cc1ccccc1N(C(=O)COc1ccc(Cl)cc1)C2
> 200 °C | Cc1nc(N)c(C#N)c(N2CCc3ccccc3CC2)n1
216 to 218 °C | c1cc(-c2cncnc2)cc(-n2cnc3cc(-c4ccoc4)ccc32)c1
286 °C | CN1CCN(c2cc3c(cc2Cl)c(=O)c(C(=O)O)cn3C)CC1
114 to 116 °C | Clc1cccc(C2CCN(CCCOc3ccc4scnc4c3)CC2)c1Cl
125 to 130 °C | O=C(c1ccc(-c2ccsc2)cc1Cl)c1cccc2c1Nc1ncccc1CN2
154 to 158 °C | O=C1OC(N2C(=O)NC(=O)C23C(=O)N(Cc2ccc(Cl)c(Cl)c2)c2ccccc23)c2ccccc21 (centres undefined)
192 to 193 °C | C[C@@H]1Cc2cc(N3C[C@H](CN=[N+]=[N-])OC3=O)ccc2N1C(=O)OCc1ccccc1
198 °C | O=c1c(CO)cnc2c3ccccc3ccn12
151 to 153 °C | Cc1c(NC(=O)c2ccc(-c3ccccc3)cc2F)ccc2cc(CN3CCCCCC3)cnc12
86 to 88 °C | CCC(=O)Nc1nc(CN2CCC(OC(c3ccccc3)c3ccccc3)CC2)cs1
148 to 149 °C | CC(=O)N1CCN(c2ccn3nc(-c4ccccc4)c(-c4ccc(=O)n(C(C)C)n4)c3c2)CC1
59 to 61 °C | CC(=O)N1CCc2c([nH]c3ccc(Cl)cc23)C1CCCN1CCN(C)CC1 (centres undefined)
138 to 143 °C | O=C(O)CN(CC(=O)O)Cc1cc(S(=O)(=O)c2ccc(OCc3ccccc3)cc2)cc(CN(CC(=O)O)CC(=O)O)c1O
186 to 192 °C | Nc1nc2nc(SCc3ccccc3)ncc2cc1Oc1ccc(F)cc1
106 to 107 °C | O=[N+]([O-])c1cc(CCl)ccc1Oc1ccc(OCc2ccccc2)cc1
112 to 113 °C | COc1ccc(CCCOS(C)(=O)=O)cc1OCc1coc(/C=C/c2ccccc2)n1
167 to 170 °C | CN(C)c1nc(=O)c2cccnc2n1Cc1ccc(F)cc1
102 to 105 °C | CCC1CCC(Oc2cc(F)cc(C(=O)Nc3ccc(OCCN4CCOCC4)c4ccccc34)c2)CC1 (centres undefined)

Continued, compound first:

SMILES | melting point
CC1(C)CC(OC(=O)c2ccccc2C(=O)OC2CC(C)(C)N(OC3CCCCC3)C(C)(C)C2)CC(C)(C)N1OC1CCCCC1 | 149 to 151 °C
OC1CSC(Oc2ccc(-c3ccoc3)cc2F)C(O)C1O (centres undefined) | 155 °C
CCOC(=O)C(C)N1C(=O)C(C)Oc2c(N3CCOCC3)nc(C)nc21 (centres undefined) | 80 to 82 °C
COC(=O)c1ccc(S(C)(=O)=O)c(C=NO)c1C | 123 to 129 °C
CNC(=S)N(Cc1ccc(Cl)nc1)CC(F)(F)F | 98 to 100 °C
CC(C)c1nc(CCOC(=O)N[C@H](C(=O)N[C@@H](Cc2ccccc2)C[C@H](O)[C@H](Cc2ccccc2)NC(=O)OCc2cncs2)C(C)C)cs1 | 146 to 147 °C
CCc1cc(N(Cc2ccc(-c3ccccc3-c3nnn(C(c4ccccc4)(c4ccccc4)c4ccccc4)n3)cc2)C(C)=O)cc(CC)n1 | 98 to 102 °C
Cc1nc(Nc2nc3ccc([N+](=O)[O-])cc3[nH]2)nc(O)c1CC(=O)O | > 300 °C
NC(=S)c1cn(COC(CO)CO)c2ncnc(N)c12 | 180 to 181 °C
COc1ccc(OCC(N)=O)c([N+](=O)[O-])c1 | 190 to 191 °C
C[C@H]1[C@H](O)C2(CC2)C(=O)N1c1ccc(C#N)c(Cl)c1 | 169 to 172 °C
Nc1c2c(nc3cc(F)ccc13)CCCC2O (centres undefined) | 203 to 206 °C
CC(=O)Nc1c(C(=O)C(C)(C)C)[nH]c2cc(Cl)ccc12 | 190 to 193 °C
CC(=O)NCc1cc(C(C)(C)C)c(O)c(C(C)(C)C)c1 | 80 to 84 °C
CC(C)(C)OC(=O)NC(Cc1cc(C(=O)c2cc(C(F)(F)F)cc(C(F)(F)F)c2)ccc1[N+](=O)[O-])C(=O)OC(C)(C)C (centres undefined) | 176 to 177 °C
O=C(O)CCc1cc2ccccc2n1S(=O)(=O)c1ccccc1 | 180 to 185 °C
CCN(CC)Cc1ccc(N=C2NCCN2)c(Cl)c1 | 113 to 115 °C
CCOC(=O)c1cn(NC=O)c2nc(C)ccc2c1=O | 214 °C
N#Cc1c(O)cc(C(F)(F)F)cc1Cl | 138 °C
CC(C)NS(=O)(=O)c1ccc(-c2ccc3nnn(Cc4ccc5ncccc5c4)c3n2)cc1 | 154 to 156 °C
O=C(O)Cc1cccc2c1NC(=O)C2 | 234 to 236 °C
CC(C)(C)ONC(=O)n1cc(C(=O)C2CSC(c3cccnc3)N2)c2ccccc21 (centres undefined) | 101 to 103 °C
Cc1ccc(C)c2c(C=O)c3ccccc3c(C=O)c12 | 158 to 162 °C
CCSC1=NCC(=O)N1c1cc(Cl)ccc1OC | 113 to 115 °C
